Test results published in ChEMBL document CHEMBL1154043, “Synthesis and structure-activity relationship of a novel series of heterocyclic sulfonamide gamma-secretase inhibitors” (Bioorg Med Chem, 2009).
Activity calls are given as the source filed them. The rule behind the calls is not given here.

Legend:
CHO = assay: (§1) Inhibition of gamma-secretase-mediated cleavage of human APP expressed in CHO cells assessed as reduction in amyloid beta42 production after 24 hrs by double sandwich ELISA; type: cell-based
[1] = Inhibition of gamma-secretase assessed as increase in beta-C-terminal fragment level after 24 hrs by double sandwich ELISA
[2] = Inhibition of gamma-secretase-mediated cleavage of human APP expressed in CHO cells assessed as reduction in amyloid beta40 production after 24 hrs by double sandwich ELISA; type: cell-based
Gamma-secretase = assay: (§2) Displacement of [3H](S)-5-chloro-N-(3-ethyl-1-hydroxypentan-2-yl)thiophene-2-sulfonamide from gamma secretase in human SH-SY5Y cells after 1 hr; type: cell-based
[3] = Inhibition of gamma-secretase assessed as effect on APP level after 24 hrs by double sandwich ELISA
[4] = Selectivity ratio of EC50 for gamma-secretase-mediated mouse notch cleavage to EC50 for gamma-secretase-mediated amyloid beta40 production
[5] = Inhibition of gamma-secretase-mediated mouse notch cleavage expressed in CHOK1 cells assessed as secreted alkaline phosphatase level after 48 hrs by chemiluminescence assay; type: cell-based; conditions: CHO-K1, 48 h
[6] = Selectivity for gamma-secretase-mediated APP cleavage over gamma-secretase-mediated notch processing
[7] = as §1; type: cell-based
[8] = molecular target: Gamma-secretase (Homo sapiens) (UniProt Q96BI3+Q9NZ42+Q8WW43+P49768+Q92542+P49810); assay: as §2; type: cell-based

Activity [1]	EC50 [2] [nM]	IC50 (Gamma-secretase) [nM]	Activity [3]	Selectivity ratio [4]	EC50 [5] [nM]	Selectivity ratio [6]	EC50 [7] [nM]	Activity [8]	Structure (SMILES)	Activity (CHO)
Active	92	154	Active	20	1800	–	–	–	CCC(CC)[C@H](NS(=O)(=O)c1ccc(Cl)s1)c1ccnn1Cc1ccc(O)cc1	Active
–	–	–	–	–	–	15	–	–	C[C@H](c1ccc(F)cc1CCCC(=O)O)N(c1cc(F)ccc1F)S(=O)(=O)c1ccc(Cl)cc1	–
–	29	–	–	–	–	–	29	Active	CCC(CC)[C@@H](CO)NS(=O)(=O)c1ccc(Cl)s1 [GSI-136]	–
